Data on 15 compounds can be found in patent publication US8987287B2, “Spirocyclic morphinans and their use” (Purdue Pharma L.P., priority 2012, dated 2015).

One assay addresses κ opioid receptor (Homo sapiens (Human), UniProt P41145). Briefly: κ-opioid receptor [35S]GTPγS functional assay, U-2 OS cells. Type of assay: biochemical. Conditions: for Emax: relative to U69,593, U-2 OS cells. As for the experimental part: κ-Opioid Receptor Functional Assay Procedures: Functional [^35S]GTPγS binding assays were conducted as follows. κ opioid receptor membrane solution was prepared by sequentially adding final concentrations of 0.026 μg/μl κ membrane protein (in-house), 10 μg/mL saponin, 3 μM GDP and 0.20 nM [^35S]GTPγS to binding buffer (100 mM NaCl, 10 mM MgCl2, 20 mM HEPES, pH 7.4) on ice. The prepared membrane solution (190 μl/well) was transferred to 96-shallow well polypropylene plates containing 10 μl of 20× concentrated stock solutions of agonist prepared in DMSO. Plates were incubated for 30 min at a temperature of about 25° C. with shaking. Reactions were terminated by rapid filtration onto 96-well Unifilter GF/B filter plates (Perkin Elmer, Shelton, Conn.) using a 96-well tissue harvester (Packard) and followed by three filtration washes with 200 μl ice-cold binding buffer (10 mM NaH2PO4, 10 mM Na2HPO4, pH 7.4). Filter plates were subsequently dried at 50° C. for 2-3 hours. Fifty μl/well scintillation cocktail (Perkin Elmer, Shelton, Conn.) was added and plates were counted in a Packard Top-Count for 1 min/well.
κ-Opioid Receptor Functional Data: κ GTP EC50 is the concentration of a compound providing 50% of the maximal response for the compound at a κ receptor.
κ GTP Emax (%) is the maximal effect elicited by a compound relative to the effect elicited by U69,593.
(§1) The following TABLE 3 provides results on the activity response of certain Compounds of the Invention at the μ- and κ-opioid receptors determined as described above using U-2 OS cells.

In another assay the target is μ-opioid receptor (Homo sapiens (Human), UniProt P35372). Description: μ-opioid receptor [35S]GTPγS functional assay, U-2 OS cells. The class given is biochemical. Conditions: for Emax: relative to DAMGO, U-2 OS cells. On the procedure: μ-Opioid Receptor Functional Assay Procedures: [^35S]GTPγS functional assays were conducted using freshly thawed μ-receptor membranes prepared in-house from a cell line expressing recombinant μ opioid receptor in a HEK-293, CHO or U-2 OS cell background, or purchased from a commercial source (Perkin Elmer, Shelton, Conn.; or DiscovRx, Fremont, Calif.). Assay reactions were prepared by sequentially adding the following reagents to binding buffer (100 mM NaCl, 10 mM MgCl2, 20 mM HEPES, pH 7.4) on ice (final concentrations indicated): membrane protein (0.026 mg/mL), saponin ([…]), GDP ([…]) and [^35S]GTPγS (0.20 nM; Perkin Elmer, Shelton, Conn.). The prepared membrane solution (190 μl/well) was transferred to 96-shallow well polypropylene plates containing 10 μl of 20× concentrated stock solutions of the agonist [D-Ala^2, N-methyl-Phe^4 Gly-ol^5]-enkephalin (DAMGO) prepared in dimethyl sulfoxide (DMSO). Plates were incubated for 30 min at about 25° C. with shaking. Reactions were terminated by rapid filtration onto 96-well Unifilter GF/B filter plates (Perkin Elmer, Shelton, Conn.) using a 96-well tissue harvester (Perkin Elmer, Shelton, Conn.) followed by three filtration washes with 200 μl of ice-cold wash buffer (10 mM NaH2PO4, 10 mM Na2HPO4, pH 7.4). Filter plates were subsequently dried at 50° C. for 2-3 hours. BetaScint scintillation cocktail (Perkin Elmer, Shelton, Conn.) was added (50 μl/well) and plates were counted using a Packard Top-Count for 1 min/well. Data were analyzed using the sigmoidal dose-response curve fitting functions in GraphPad PRISM v. 3.0, or an in-house function for non-linear, sigmoidal dose-response curve-fitting.
μ-Opioid Receptor Functional Data: μ GTP EC50 is the concentration of a compound providing 50% of the maximal response for the compound at a μ-opioid receptor.
μ GTP Emax (%) is the maximal effect elicited by a compound relative to the effect elicited by DAMGO, a standard μ agonist. Generally, the μ GTP Emax (%) value measures the efficacy of a compound to treat or prevent pain or other Conditions.
as §1

One may read the EC50 as the concentration that produces a half-maximal response. Low values mean greater potency, high ones weaker potency. As a reminder, the Emax is the greatest response seen or fitted, relative to the assay's reference. As to `CCN1C(=O)N[C@]2(CC[C@@]3(O)[C@H]4Cc5ccc(O)cc5[C@@]3(CCN4CC)C2)C1=O` [Compound 31, (4bR,4′S,8aS,9R)-1′,11-diethyl-3,8a-dihydroxy-5,7,8,8a,9,10-hexahydrospiro[9,4b-(epiminoethano)phenanthrene-6,4′-imidazolidine]-2′,5′-dione], the EC50 on κ opioid receptor is 445 ± 197 nM; on μ-opioid receptor it was 1510 ± 309 nM. Also, the Emax is 102 ± 4.48% at κ opioid receptor and 88.9 ± 0.94% at μ-opioid receptor.
As for `CCN1CC[C@]23C[C@]4(CC[C@@]2(O)[C@H]1Cc1ccc(OC)cc13)NC(=O)NC4=O` [Compound 15, (4bR,4′S,8aS,9R)-11-ethyl-8a-hydroxy-3-methoxy-5,7,8,8a,9,10-hexahydrospiro[9,4b-(epiminoethano)phenanthrene-6,4′-imidazolidine]-2′,5′-dione], on κ opioid receptor, the EC50 is > 20000 nM and the Emax amounted to 65.3 ± 7.86%. For the same compound, at μ-opioid receptor, the EC50 is > 20000 nM and the Emax came out at 8%.
Consider `CC(C)CCN1CC[C@]23C[C@]4(CC[C@@]2(O)[C@H]1Cc1ccc(O)cc13)NC(=O)NC4=O` [Compound 28, (4bR,4′S,8aS,9R)-3,8a-dihydroxy-11-isopentyl-5,7,8,8a,9,10-hexahydrospiro[9,4b-(epiminoethano)phenanthrene-6,4′-imidazolidine]-2′,5′-dione], for which the EC50 at κ opioid receptor amounted to 604 ± 112 nM; at μ-opioid receptor it was 154 ± 20.1 nM. Moreover, the results for the Emax on κ opioid receptor and at μ-opioid receptor were 88 ± 4.36% and 113 ± 2.78%, respectively.
Regarding `O=C1NC(=O)[C@@]2(CC[C@@]3(O)[C@H]4Cc5ccc(O)cc5[C@@]3(CCN4CC(F)F)C2)N1` [Compound 38, (4bR,4′S,8aS,9R)-11-(2,2-difluoroethyl)-3,8a-dihydroxy-5,7,8,8a,9,10-hexahydrospiro[9,4b-(epiminoethano)phenanthrene-6,4′-imidazolidine]-2′,5′-dione], at κ opioid receptor, the response was half-maximal at 441 ± 144 nM (EC50) and the Emax turned out to be 99 ± 3.51%. For the same compound, at μ-opioid receptor, the EC50 is > 20000 nM and the Emax is 12 ± 1%.
Turning to `CCN1CC[C@]23C[C@]4(CC[C@@]2(O)[C@H]1Cc1ccc(O)cc13)NC(=O)NC4=O` [Compound 29], at κ opioid receptor, the EC50 was 250 ± 95 nM and the Emax stood at 102 ± 2.19%. For the same compound, on μ-opioid receptor, the response was half-maximal at 1260 ± 206 nM (EC50) and the Emax was 83.8 ± 0.8%.
On the same counts, the results for `CN1CC[C@]23C[C@@]4(CC[C@@]2(O)[C@H]1Cc1ccc(O)cc13)C(=O)NC(=O)N4C` [Compound 70, (4S,4b′R,8a′S,9′R)-3′,8a′-dihydroxy-3,11′-dimethyl-8′,8a′,9′,1′-tetrahydro-5′H,7′H-spiro[imidazolidine-4,6′-[9,4b](epiminoethano)phenantrene]-2,5-dione] are 322 ± 28.1 nM, 118 ± 9.61%, 23.4 ± 2.03 nM and 99 ± 1.53%.
On the same counts, the results for `COc1ccc2c(c1)[C@]13CCN(CC4CCCCC4)[C@H](C2)[C@]1(O)CC[C@@]1(C3)NC(=O)NC1=O` [Compound 23, (4bR,4′S,8aS,9R)-11-(cyclohexylmethyl)-8a-hydroxy-3-methoxy-5,7,8,8a,9,10-hexahydrospiro[9,4b-(epiminoethano)phenanthrene-6,4′-imidazolidine]-2′,5′-dione] are > 20000 nM, 98 ± 8.89%, > 20000 nM and 11%.
Take `CCN1C(=O)N(Cc2ccc(O)cc2)C(=O)[C@@]12CC[C@@]1(O)[C@H]3Cc4ccc(O)cc4[C@@]1(CCN3CC1CC1)C2` [Compound 48, (4S,4b′R,8a′S,9′R)-11′-(cyclopropylmethyl)-3-ethyl-3′,8a′-dihydroxy-1-(4-hydroxybenzyl)-8′,8a′,9′,10′-tetrahydro-5′H,7′H-spiro[imidazolidin-4,6′-[9,4b](epiminoethano)-phenantrene]-2,5-dione]: the EC50 at κ opioid receptor was determined as 2.61 ± 0.3 nM; on μ-opioid receptor it was 0.82 ± 0.093 nM. In addition, the Emax at κ opioid receptor was 105 ± 1.2%; on μ-opioid receptor, 12 ± 0.58%.
Take `COc1ccc2c(c1)[C@]13CCN(CC(F)F)[C@H](C2)[C@]1(O)CC[C@@]1(C3)NC(=O)NC1=O` [Compound 19, (4bR,4′S,8aS,9R)-11-(2,2-difluoroethyl)-8a-hydroxy-3-methoxy-5,7,8,8a,9,10-hexahydrospiro[9,4b-(epiminoethano)phenanthrene-6,4′-imidazolidine]-2′,5′-dione]: at κ opioid receptor, the EC50 was > 20000 nM and the Emax came to 52%. For the same compound, on μ-opioid receptor, the half-maximal effective concentration (EC50) was > 20000 nM and the Emax amounted to 1%.
Consider `COc1ccc2c(c1)[C@]13CCN(CCCC(F)(F)F)[C@H](C2)[C@]1(O)CC[C@@]1(C3)NC(=O)NC1=O` [Compound 18, (4bR,4′S,8aS,9R)-8a-hydroxy-3-methoxy-11-(4,4,4-trifluorobutyl)-5,7,8,8a,9,10-hexahydrospiro[9,4b-(epiminoethano)phenanthrene-6,4′-imidazolidine]-2′,5′-dione], for which the EC50 on κ opioid receptor and on μ-opioid receptor was > 20000 nM throughout. In addition, the figures for the Emax at κ opioid receptor and at μ-opioid receptor were 86 ± 7.21% and 20.7 ± 4.81%, respectively.
On κ opioid receptor, `O=C1NC(=O)[C@@]2(CC[C@@]3(O)[C@H]4Cc5ccc(O)cc5[C@@]3(CCN4CCCc3ccccc3)C2)N1` [Compound 36, (4bR,4′S,8aS,9R)-3,8a-dihydroxy-11-(3-phenylpropyl)-5,7,8,8a,9,10-hexahydrospiro[9,4b-(epiminoethano)phenanthrene-6,4′-imidazolidine]-2′,5′-dione] had an EC50 of 2500 ± 277 nM and an Emax of 84.3 ± 2.6%. At μ-opioid receptor, this compound displayed an EC50 of 442 ± 21.2 nM and an Emax of 77.7 ± 3.53%.
On to `O=C1NC(=O)[C@@]2(CC[C@@]3(O)[C@H]4Cc5ccc(O)cc5[C@@]3(CCN4CCc3ccccc3)C2)N1` [Compound 35, (4bR,4′S,8aS,9R)-3,8a-dihydroxy-11-phenethyl-5,7,8,8a,9,10-hexahydrospiro[9,4b-(epiminoethano)phenanthrene-6,4′-imidazolidine]-2′,5′-dione], for which the results for the EC50 at κ opioid receptor and on μ-opioid receptor were 270 ± 44.1 nM and 1.23 ± 0.093 nM, respectively. Moreover, the figures for the Emax on κ opioid receptor and at μ-opioid receptor were 84 ± 1.53% and 104 ± 3.51%, respectively.
With `CCN1C(=O)N(CC)[C@]2(CC[C@@]3(O)[C@H]4Cc5ccc(O)cc5[C@@]3(CCN4C)C2)C1=O` [Compound 62, (4S,4b′R,8a′S,9′R)-1,3-diethyl-3′,8a′-dihydroxy-11′-methyl-8′,8a′,9′,10′-tetrahydro-5′H,7′H-spiro[imidazolidine-4,6′-[9,4b](epiminoethano)phenantrene]-2,5-dione], on κ opioid receptor, a half-maximal response (EC50) required 711 ± 37.8 nM and the Emax came to 108 ± 2.52%. At μ-opioid receptor, the EC50 stood at 75.2 ± 3.36 nM and the Emax is 78 ± 0.58%.
On κ opioid receptor, `O=C1NC(=O)[C@@]2(CC[C@@]3(O)[C@H]4Cc5ccc(O)cc5[C@@]3(CCN4CCC(F)(F)F)C2)N1` [Compound 33, (4bR,4′S,8aS,9R)-3,8a-dihydroxy-11-(3,3,3-trifluoropropyl)-5,7,8,8a,9,10-hexahydrospiro[9,4b-(epiminoethano)phenanthrene-6,4′-imidazolidine]-2′,5′-dione] returned an EC50 of 393 ± 13.5 nM and an Emax of 98.3 ± 1.45%. In addition, at μ-opioid receptor, the EC50 was found to be 272 ± 18 nM and the Emax is 39.7 ± 1.86%.
At κ opioid receptor, `O=C1NC(=O)[C@@]2(CC[C@@]3(O)[C@H]4Cc5ccc(O)cc5[C@@]3(CCN4CCF)C2)N1` [Compound 30] showed an EC50 of 38.2 ± 12 nM and an Emax of 99.7 ± 1.67%. On μ-opioid receptor, this compound returned an EC50 of 102 ± 30.2 nM and an Emax of 56.7 ± 4.33%.
